Laboratory results reported in PubChem BioAssay (NCI).
Several values for one entry are separate records, joined by “and”; a condition that tells them apart may be missing. Equal values may be shown once.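 Interpolation was linear, between the two tested concentrations surrounding the appropriate level; five concentrations were tested over 48 hours in 96-well plates. Here, GI50 denotes the concentration required for 50% inhibition of growth. Definition used: TGI = concentration required for complete inhibition of growth.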

Key:
Experiment in all cases: growth of human tumour cells (NCI), 48 h
A549 NSCLC = test system: A549 NSCLC
CCRF-CEM leukemia = test system: CCRF-CEM leukemia
COLO 205 colon = test system: COLO 205 colon
HCT-15 colon = test system: HCT-15 colon
HS 578T breast = test system: HS 578T breast
HT29 colon = test system: HT29 colon
NCI/ADR-RES ovarian = test system: NCI/ADR-RES ovarian
SF-539 CNS = test system: SF-539 CNS
SNB-75 CNS = test system: SNB-75 CNS
TK-10 renal = test system: TK-10 renal

Structure (SMILES)	TGI (A549 NSCLC)	TGI (CCRF-CEM leukemia)	TGI (COLO 205 colon)	TGI (HCT-15 colon)	TGI (HS 578T breast)	TGI (HT29 colon)	TGI (NCI/ADR-RES ovarian)	TGI (SF-539 CNS)	TGI (SNB-75 CNS)	TGI (TK-10 renal)	GI50 (CCRF-CEM leukemia)	GI50 (COLO 205 colon)	GI50 (NCI/ADR-RES ovarian)	GI50 (SF-539 CNS)	GI50 (A549 NSCLC)	GI50 (HCT-15 colon)	GI50 (HS 578T breast)	GI50 (HT29 colon)	GI50 (SNB-75 CNS)	GI50 (TK-10 renal)
Cc1ccc([N+](=O)[O-])c2c(NCCCN(C)C)ccnc12	> 100 µM	> 100 µM	31.8 µM	> 100 µM	> 100 µM	> 90.7 µM	> 100 µM	> 77 µM	> 100 µM	> 100 µM										
COCC(=O)OC1CCn2c1nc1c2C(=O)C(C)=C(NC(C)=O)C1=O (centres undefined)	47.8 µM	1.58 µM and 8.85 µM	29.9 µM	30.1 µM	16.8 µM	29.5 µM	22.3 µM	3.85 µM and 9.32 µM	14.8 µM	34.5 µM	0.262 µM	8.72 µM	6.89 µM	2.14 µM						
CNC(=O)c1cc(Oc2ccc(NC(=O)Nc3ccc(Cl)c(OC(F)(F)F)c3)c(F)c2)ccn1	> 33.2 µM	> 33.2 µM	7.65 µM	18 µM	> 33.2 µM	13.5 µM	5.22 µM	8.13 µM	13.5 µM	> 33.2 µM	1.94 µM	1.14 µM	1.37 µM	3.38 µM	2.03 µM	1.58 µM	3.81 µM	1.17 µM	5.35 µM	2.44 µM
CNC(=O)c1ccc(-c2cnc3ncc(Cc4ccc5ncccc5c4)n3n2)cc1F	> 100 µM	> 100 µM	> 100 µM	> 100 µM	> 100 µM	> 100 µM	> 100 µM	> 100 µM	54.8 µM	> 100 µM	> 100 µM	> 100 µM	> 100 µM	54.1 µM	> 100 µM	> 100 µM	62.7 µM	> 100 µM	12.7 µM	> 100 µM
CS(=O)(=O)Nc1ccc(-c2ccc3c(NC(=O)C4CC4)n[nH]c3c2)cc1	> 25 µM	> 25 µM	> 25 µM	> 25 µM	> 25 µM	> 25 µM	> 25 µM	> 25 µM	> 25 µM	> 25 µM	24.2 µM	> 25 µM	> 25 µM	> 20 µM	> 25 µM	> 25 µM	24.4 µM	> 23.6 µM	> 25 µM	> 25 µM
CCCS(=O)(=O)c1nc(NC2CC2)cc(-c2ccc3c(ccn3C3CC(C)(C)NC(C)(C)C3)c2)n1		4.8 µM	3.39 µM	3.12 µM	4.93 µM	3.38 µM	4.46 µM		2.86 µM	2.98 µM	2.02 µM	1.84 µM	2 µM			1.57 µM	2.1 µM	1.81 µM	1.45 µM	1.52 µM
CCCCCC(C(O)C#N)C(O)(C(F)(F)F)C(F)(F)F (centres undefined)	> 10 µM	> 10 µM	> 10 µM	> 10 µM	> 10 µM	> 10 µM	> 10 µM	> 10 µM	> 10 µM	> 10 µM										
COC(=O)c1c(O)ccc2[nH]c(C)c(C#N)c12	> 100 µM		> 100 µM	> 100 µM	92.2 µM	> 100 µM	> 100 µM		> 100 µM	49.2 µM		88.5 µM	> 100 µM		41.1 µM	42.1 µM	31 µM	60.3 µM	87.9 µM	8.8 µM
C=CC(=O)N1CCN(c2ncnc3c(F)c(-c4c(O)cccc4F)c(Cl)cc23)CC1	40.7 µM	> 100 µM	37.5 µM	27 µM	66.4 µM	77.7 µM	76.1 µM	20.5 µM	22.6 µM	43.4 µM	9.79 µM	17.5 µM	22.1 µM	7.48 µM	18 µM	10 µM	19 µM	25 µM	7.54 µM	16.1 µM
CC(=O)[CH-]C(C)=O.CC(=O)[CH-]C(C)=O.N=CC=N.[Sn+2]	22.4 µM	13.3 µM	3.61 µM	7.14 µM	10.5 µM	10.8 µM	12.6 µM	11.8 µM	13.7 µM	10.7 µM	1.51 µM	2.02 µM	3.15 µM	3.23 µM	9.6 µM	2.7 µM	2.66 µM	3.41 µM	3.7 µM	4.48 µM
COc1cc(/C=C2\CC3C4CC=C5CC(N6CCCC6)CC[C@]5(C)C4CC[C@]3(C)C2OC(C)=O)ccc1OCCN1CCCC1 (some centres undefined)	4.63 µM	4.87 µM	12.9 µM	3.4 µM	4.54 µM	4.39 µM	5.2 µM	3.5 µM	5.09 µM	29.2 µM	1.95 µM	3.61 µM	2.52 µM	1.92 µM	2.08 µM	1.52 µM	2.38 µM	1.82 µM	2.51 µM	14.9 µM
CNC(=O)c1cn(C[C@H](F)CCc2ccc(NC(=O)Cc3cc(OC4CC(F)(F)C4)cc(C)n3)nn2)nn1	> 100 µM	> 100 µM	> 100 µM	> 100 µM	> 100 µM	> 100 µM	> 100 µM	> 100 µM	> 100 µM	> 100 µM	> 45.8 µM	> 100 µM	> 100 µM	> 100 µM	0.0594 µM	> 100 µM	5.37 µM	> 100 µM	> 100 µM	> 100 µM
CC1=C(C)C(=O)O[C@@H]([C@](C)(O)[C@]2(O)CC[C@@]3(O)[C@@H]4C[C@H]5O[C@]56CC=CC(=O)[C@]6(C)[C@H]4CC[C@]23C)C1	5.93 µM		0.176 µM	1.25 µM	2.33 µM	1.47 µM	> 63.8 µM	1.62 µM	1.2 µM	0.995 µM	0.163 µM	0.0398 µM	2.76 µM	0.272 µM	0.568 µM	0.152 µM	0.127 µM	0.066 µM	0.0322 µM	0.0482 µM
CCCNCc1cc(C)cc2c1nc(N1CCNCC1)n2Cc1cc(C)c(F)c(C)c1	17.1 µM	4.71 µM	3.42 µM	16.4 µM	11.6 µM	5.29 µM	31 µM	3.59 µM	26.4 µM	28 µM	2.2 µM	1.82 µM	16.1 µM	1.79 µM	4.54 µM	4.46 µM	2.56 µM	2.09 µM	12.1 µM	14.3 µM
CC(=O)O[C@H]1C(=O)[C@@]2(C)[C@H]([C@H](OC(=O)c3ccccc3)[C@]3([O-])C[C@H](OC(=O)[C@H]([O-])[C@@H](NC(=O)c4ccccc4)c4ccccc4)C(C)=C1C3(C)C)[C@]1(OC(C)=O)CO[C@@H]1C[C@@H]2[O-].[Fe+3]	65 µM and > 100 µM	65 µM and 68.9 µM	0.226 µM and 0.508 µM	16.2 µM and 17 µM			15.9 µM and > 100 µM	0.549 µM and 0.486 µM	0.274 µM and 0.505 µM	65 µM and > 100 µM	0.249 µM and 0.876 µM	0.0365 µM and 0.0432 µM	19.2 µM	0.029 µM and 0.0519 µM	0.0335 µM and 0.0852 µM	1.97 µM and 2.33 µM	0.0562 µM and 0.141 µM	0.0236 µM and 0.0328 µM	0.0222 µM and 0.023 µM	0.591 µM and 0.658 µM
CC(C)(C)c1nc2c(o1)C(=Nc1ccc(F)cc1)c1ccccc1C2=O	22.7 µM	> 100 µM	30.7 µM	33.8 µM	> 45.7 µM	41.6 µM	> 56.7 µM	14.2 µM	20 µM	68.3 µM										
CCn1c(-c2nonc2N)nc2ccc(F)cc21	> 25 µM	> 25 µM	> 25 µM	> 25 µM	> 25 µM	> 25 µM	> 25 µM	> 25 µM	> 25 µM	> 25 µM	> 25 µM	> 25 µM	> 25 µM	> 25 µM	> 25 µM	> 25 µM	> 25 µM	> 25 µM	> 25 µM	> 25 µM
Clc1ccc(OCc2nnc3n2N=C(c2ccc(Cl)cc2Cl)CS3)c(Cl)c1	95.8 µM	89.7 µM	> 100 µM	33.2 µM	> 100 µM	83.3 µM	91.6 µM	38.7 µM	48.7 µM	> 100 µM	22.3 µM	34.7 µM	27 µM	18.7 µM	28.8 µM	12.7 µM	29.6 µM	24.4 µM	12.2 µM	25.1 µM
COc1ccccc1C(=O)c1ccc2ccccc2c1	> 100 µM	> 100 µM	61.5 µM	> 100 µM	39.1 µM	85.7 µM	> 100 µM	25.8 µM	> 100 µM	63.6 µM										
Oc1c(Br)cc(CN(Cc2cc(Br)c(O)c(Br)c2)C2CCCCC2)cc1Br	> 100 µM	> 100 µM	> 100 µM	> 100 µM	> 100 µM	> 100 µM	> 100 µM		> 100 µM	> 100 µM										
C=C1CC(COc2cc(Cl)nc(N)n2)C1			60.8 µM								69.6 µM	21.1 µM	33.4 µM		33.9 µM	33 µM	49.9 µM	37 µM	29.2 µM	
FC(F)(F)c1ccc2c(Nc3cccc(C4CC(c5ccccc5)=NN4c4ccc(Cl)cc4)c3)ccnc2c1 (centres undefined)	44.8 µM	38.5 µM	> 100 µM	4.26 µM	43.2 µM	12.5 µM	10.3 µM	19.5 µM	20.8 µM	21.4 µM	3.32 µM	10.7 µM	2.63 µM	4.78 µM	10.7 µM	1.61 µM	4.43 µM	3.3 µM	2.67 µM	4.76 µM
COc1ccc2c(c1)[C@@]13CCN4CC5=CCO[C@H]6CC(=O)N2[C@H]1[C@H]6[C@H]5C[C@H]43	> 100 µM	> 100 µM	> 100 µM	> 100 µM	> 100 µM	> 100 µM	> 100 µM	> 100 µM		> 100 µM										
Cc1c(C(=O)NN)nnn1-c1ccnc2c(C(F)(F)F)cccc12	> 100 µM	> 100 µM	> 100 µM	> 100 µM	> 100 µM		> 100 µM	> 100 µM	> 100 µM	> 100 µM	> 100 µM	> 100 µM	> 100 µM	> 100 µM	> 100 µM	> 100 µM	> 100 µM		37.9 µM	> 100 µM
Nc1ccc(SC23CC4CC(CC(C4)C2)C3)cc1	> 100 µM	> 100 µM	> 100 µM	> 100 µM	> 100 µM	> 100 µM	> 100 µM	> 100 µM		> 100 µM										
Cc1ncc([N+](=O)[O-])n1CCNC(=O)CCCCn1ccnc1[N+](=O)[O-]	> 100 µM	> 100 µM	> 100 µM	> 100 µM	> 100 µM	> 100 µM	> 100 µM	> 100 µM	> 100 µM											
Cc1sc(C)c(-c2ccc(CO)o2)c1-c1ccc(CO)o1	> 100 µM	> 100 µM		> 100 µM	> 100 µM	> 100 µM	> 100 µM	> 100 µM	> 100 µM	0.426 µM	49.1 µM		> 84.4 µM	> 100 µM	2.88 µM	> 76.6 µM	43 µM	0.498 µM	25.4 µM	0.116 µM
Cc1ccc(-c2nc(C(Cl)Cl)n3nc(-c4ccccc4)cc3n2)cc1		> 100 µM		1.12 µM	3.96 µM	> 56.2 µM	3.76 µM		> 100 µM		> 100 µM		0.476 µM			0.313 µM	1.2 µM	1.1 µM	> 100 µM	
CCN(Cc1c(F)cccc1F)c1ccc(CO)c(Cl)c1	10.7 µM	98.5 µM	1.61 µM	48.8 µM	77.4 µM	19.5 µM	43.2 µM	> 59.2 µM	49.6 µM		25.7 µM	0.387 µM	6.86 µM	20.5 µM	0.445 µM	9.04 µM	20.4 µM	0.747 µM	11 µM	
